Data: US4797406A, “Amides and esters containing bridged piperidines and use as serotonin M antagonists” (Sandoz Ltd., priority 1983, dated 1989)

Experiments:
[1] = biological target: T1, M receptors for serotonin (Oryctolagus cuniculus, UniProt A0A5F9C9J3); test: isolated rabbit vagus nerve test (serotonin reduction of C fibre compound action potential); conditions: antagonism of serotonin on C fibre action potential, read-out: pA2 in the vagus nerve test (converted)
T1 construct: isolated rabbit vagus nerve; from tissue; host or cells: isolated rabbit vagus nerve
T1 sequence (A0A5F9C9J3 1-494): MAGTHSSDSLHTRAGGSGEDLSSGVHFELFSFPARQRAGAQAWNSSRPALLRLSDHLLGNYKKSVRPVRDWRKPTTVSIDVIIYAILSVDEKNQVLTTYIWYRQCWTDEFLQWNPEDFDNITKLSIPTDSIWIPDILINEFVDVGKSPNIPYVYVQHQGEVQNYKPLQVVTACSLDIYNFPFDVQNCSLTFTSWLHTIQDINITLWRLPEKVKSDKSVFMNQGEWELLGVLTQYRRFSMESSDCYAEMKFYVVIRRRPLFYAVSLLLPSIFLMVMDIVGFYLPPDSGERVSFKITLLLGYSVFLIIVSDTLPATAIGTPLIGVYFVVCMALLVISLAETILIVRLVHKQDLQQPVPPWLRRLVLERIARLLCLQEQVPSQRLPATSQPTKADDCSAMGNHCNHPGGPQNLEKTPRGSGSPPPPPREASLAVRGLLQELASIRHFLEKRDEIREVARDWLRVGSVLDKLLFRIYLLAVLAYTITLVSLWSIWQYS
Description: For example, in one test the action of the compounds in inhibiting the action of serotonin in reducing the amplitude of the compound action potential from the isolated rabbit vagus nerve was observed according to the principles of Riccioppo Neto, European Journal of Pharmacology (1978) 49 351-356, under conditions permitting differentation between action potentials generated in myelinatd nerve fibres (A fibres) and those generated in small non-myelinated fibres (C fibres) as described by B. Oakley and R. Schater, Experimental Neurobiology, A Laboratory Manual, University of Michigan Press, 1978, p.85 to 96. Serotonin itself exerts its effect selectively on the C-fibres progressively with dosage. This action of serotonin is not blocked by the known serotonin antagonists, metitepine, methysergide, BOL - 148, which have been said to block D receptors for serotonin, but not M receptors (see Gaddam and Picarlli, Brit.J.Pharmacol. (1957), 12, 323-328). It therefore appears that serotonin reduces the amplitude of the action potential carried by the C fibres through an effect mediated by M receptors for serotonin which are located on these nerve fibres.
The test may be effected by establishing a dose response curve for serotonin (10^-7 -5×10^-6 M) after setting up the nerve. […]

migraine attack = conditions: slow i.v. injection of 10 mg; reported by J. B. Hughes 1977; cited from earlier work
[2] = biological target: T1, M receptors for serotonin; conditions: isolated rabbit vagus nerve; known serotonin D receptor antagonists; cited from earlier work
serotonin M receptor = conditions: human volunteers, forearm blister; serotonin D receptor antagonists; cited from earlier work

Compound | Kb [1] [nM] | block of the action of serotonin on the C fibre action potential [2] | inhibition of the algesic action of serotonin on the blister base (serotonin M receptor) | other results
CN1C[C@H]2CCC[C@@H](C1)[C@@H]2OC(=O)c1c[nH]c2ccccc12 [Example 2] | 6.31 |  |  | 
CCN(CC)CCNC(=O)c1cc(Cl)c(N)cc1OC [metoclopramide, Metoclopramide] | 50.1 |  |  | effect on a migraine attack (migraine attack): immediate effect
CC[C@@H](CO)NC(=O)[C@@H]1C=C2c3cccc4c3c(cn4C)C[C@H]2N(C)C1 [methysergide] |  | not blocked |  | 
CCN(CC)C(=O)[C@@H]1C=C2c3cccc4[nH]c(Br)c(c34)C[C@H]2N(C)C1 [BOL - 148] |  | not blocked | not inhibited | 
CCN(CC)C(=O)[C@@H]1C=C2c3cccc4[nH]cc(c34)C[C@H]2N(C)C1 [lysergic acid diethylamide] |  |  | not inhibited | 
CSc1ccc2c(c1)C(N1CCN(C)CC1)Cc1ccccc1S2 (centres unmarked) [metitepine] |  | not blocked |  | 
